MIC data for five compounds are collected here from US5508428A, “Spiro compound” (Daiichi Phamaceutical Co., Ltd., priority 1988, dated 1996).

Values after ≈ are worked out from the molar mass of the structure shown. Some results are limits rather than exact numbers.

What all share (type): cell-based
The test system of one assay is S. aureus, 209P. The assay can be described thus: Antibacterial activity (MIC), S. aureus 209P. The note with it: Staphylococcus aureus. How it is done: (§1) The antibacterial activity assays were performed by the method specified by Japan Society of Chemotherapy (Chemotherapy 29(1), 76 (1981). The table of antibacterial activity is followed by the reaction schemes for the synthesis of various spiro ring-containing cyclic amine derivatives, intermediate compounds for synthesis of quinolone rings and synthesis of various spiro compounds.

The test system of assay [1] is Str. faecalis, ATCC-19433. The assay can be described thus: Antibacterial activity (MIC), Str. faecalis ATCC-19433. Conditions: Enterococcus faecalis, ATCC19433, Str. faecalis. How it is done:
as §1

Another assay relates to E. coli, NIHJ. Nature of the assay: Antibacterial activity (MIC), E. coli NIHJ. Conditions: Escherichia coli. How it is done:
as §1

In another assay the test system is Pr. mirabillis, IF0-3849. The assay can be described thus: Antibacterial activity (MIC), Pr. mirabillis IF0-3849. The protocol: as §1
The test system of another assay is Ps. aeruginosa, 32104. The assay can be described thus: Antibacterial activity (MIC), Ps. aeruginosa 32104. Conditions: Pseudomonas aeruginosa, 32104, Ps. aeruginosa. The protocol:
as §1

In the next assay the test system is Pr. vulgaris, 08601. Nature of the assay: Antibacterial activity (MIC), Pr. vulgaris 08601. Conditions: Proteus vulgaris. How it is done: as §1
The subject of assay [2] is Ps. maltophilia, IID-1275. The assay can be described thus: Antibacterial activity (MIC), Ps. maltophilia IID-1275. Conditions: Stenotrophomonas maltophilia, IID1275, Ps. maltophilia. How it is done:
as §1

The test system of the next assay is Str. pyogenes, G-36. The assay can be described thus: Antibacterial activity (MIC), Str. pyogenes G-36. The note with it: Streptococcus pyogenes, G36, Str. pyogenes. How it is done: as §1
Another assay has as its system Ps. aeruginosa, 32121. The assay can be described thus: Antibacterial activity (MIC), Ps. aeruginosa 32121. Conditions: Pseudomonas aeruginosa, 32121, Ps. aeruginosa. The protocol: as §1
The next assay concerns Ser. marcescens, 10100. Nature of the assay: Antibacterial activity (MIC), Ser. marcescens 10100. Conditions: Serratia marcescens, 10100, Ser. marcescens. The protocol: as §1
In another assay the test system is S. flexneri, 2A 5503. Nature of the assay: Antibacterial activity (MIC), S. flexneri 2A 5503. Conditions: Shigella flexneri, 2A5503. The protocol: as §1
Another assay has as its system S. epidermidis, 56500. The assay can be described thus: Antibacterial activity (MIC), S. epidermidis 56500. The note with it: Staphylococcus epidermidis, 56500, S. epidermidis. The protocol:
as §1

Regarding `NC1CN(c2c(F)cc3c(=O)c(C(=O)O)cn(C4CC4)c3c2F)CC12CC2` (stereo not drawn) [Compound 31, 7-(7-Amino-5-azaspiro[2.4]heptan-5-yl)-1-cyclopropyl-6,8-difluoro-1,4-dihydro-4-oxoquinoline-3-carboxylic Acid], the MIC (in general, the smallest concentration in the dilution series that meets the test's criterion for growth inhibition) in the assay on S. aureus, 209P was at most 0.05 µg/mL; in [1] it was 0.2 µg/mL (≈ 0.533 µM); in the assay with E. coli, NIHJ, at most 0.05 µg/mL; against Pr. mirabillis, IF0-3849, at most 0.05 µg/mL; in the assay on Ps. aeruginosa, 32104, 0.1 µg/mL (≈ 0.266 µM); against Pr. vulgaris, 08601, at most 0.05 µg/mL. Besides, the MIC in assay [2] is at most 0.05 µg/mL; against Str. pyogenes, G-36 it was 0.39 µg/mL (≈ 1.04 µM); against Ps. aeruginosa, 32121, at most 0.05 µg/mL; with Ser. marcescens, 10100, at most 0.05 µg/mL; against S. flexneri, 2A 5503, at most 0.05 µg/mL; against S. epidermidis, 56500, 0.1 µg/mL (≈ 0.266 µM).
`N[C@@H]1CN(c2cc3c(cc2F)c(=O)c(C(=O)O)cn3C2CC2)CC12CC2` [Compound 33b, (-)-7-[7-(S)-amino-5-azaspiro[2.3]heptan-5-yl)-1-cyclopropyl-6-fluoro-1,4-dihydro-4-oxoquinoline-3-carboxylic acid]: the MIC is at most 0.05 µg/mL in the assay with S. aureus, 209P; 0.2 µg/mL (≈ 0.56 µM) in assay [1]; at most 0.05 µg/mL against E. coli, NIHJ; at most 0.05 µg/mL in the assay on Pr. mirabillis, IF0-3849; at most 0.05 µg/mL against Ps. aeruginosa, 32104; at most 0.05 µg/mL in the assay on Pr. vulgaris, 08601. The MIC in assay [2] was 0.1 µg/mL (≈ 0.28 µM); with Str. pyogenes, G-36, 0.2 µg/mL (≈ 0.56 µM); against Ps. aeruginosa, 32121 it was at most 0.05 µg/mL; against Ser. marcescens, 10100, at most 0.05 µg/mL; with S. flexneri, 2A 5503, at most 0.05 µg/mL; with S. epidermidis, 56500, 0.1 µg/mL (≈ 0.28 µM).
Take `NC1CN(c2cc3c(cc2F)c(=O)c(C(=O)O)cn3-c2ccc(F)cc2F)CC12CC2` (stereo not drawn) [Compound 34, 7-(7-amino-5-azaspiro[2.4]heptan-5-yl)-6-fluoro-1-(2.4-difluorophenyl)-1,4-dihydro-4-oxoquinoline-3-carboxylic acid]: the MIC against S. aureus, 209P is 0.1 µg/mL (≈ 0.233 µM); in assay [1], 0.78 µg/mL (≈ 1.82 µM); in the assay with E. coli, NIHJ, at most 0.05 µg/mL; in the assay on Pr. mirabillis, IF0-3849, 0.39 µg/mL (≈ 0.908 µM); with Ps. aeruginosa, 32104 it was 0.39 µg/mL (≈ 0.908 µM); against Pr. vulgaris, 08601, 0.2 µg/mL (≈ 0.466 µM). For the same compound, the MIC in assay [2] was 0.1 µg/mL (≈ 0.233 µM); against Str. pyogenes, G-36 it was 0.39 µg/mL (≈ 0.908 µM); against Ps. aeruginosa, 32121, 0.2 µg/mL (≈ 0.466 µM); against Ser. marcescens, 10100, 0.39 µg/mL (≈ 0.908 µM); against S. flexneri, 2A 5503, at most 0.05 µg/mL; against S. epidermidis, 56500, 0.2 µg/mL (≈ 0.466 µM).
`NC1CN(c2nc3c(cc2F)c(=O)c(C(=O)O)cn3C2CC2)CC12CC2` (stereo not drawn) [Compound 35, 7-(7-amino-5-azaspiro[2.4]heptan-5-yl)-1-cyclopropyl-6-fluoro-1,4-dihydro-4-oxo-1,8-naphthyridine-3-carboxylic acid]: the MIC in the assay with S. aureus, 209P is 0.1 µg/mL (≈ 0.279 µM); in assay [1], 0.39 µg/mL (≈ 1.09 µM); against E. coli, NIHJ, at most 0.05 µg/mL; against Pr. mirabillis, IF0-3849 it was 0.1 µg/mL (≈ 0.279 µM); in the assay on Ps. aeruginosa, 32104 it was 0.1 µg/mL (≈ 0.279 µM); in the assay with Pr. vulgaris, 08601 it was at most 0.05 µg/mL. Moreover, the MIC in assay [2] was at most 0.05 µg/mL; against Str. pyogenes, G-36, 0.78 µg/mL (≈ 2.18 µM); with Ps. aeruginosa, 32121 it was at most 0.05 µg/mL; in the assay on Ser. marcescens, 10100, at most 0.05 µg/mL; with S. flexneri, 2A 5503, at most 0.05 µg/mL; against S. epidermidis, 56500, 0.2 µg/mL (≈ 0.558 µM).
For `C[C@H]1COc2c(N3CC(N)C4(CC4)C3)c(F)cc3c(=O)c(C(=O)O)cn1c23` (stereo partly drawn) [Compound 36, 10-(7-Amino-5-azaspiro[2.4]heptan-5-yl)-9-fluoro-2,3-dihydro-3-(S)-methyl-7-oxo-7H-pyrido[1,2,3-de][1.4]-benzoxazine-6-carboxylic acid], the MIC against S. aureus, 209P was 0.1 µg/mL (≈ 0.268 µM); in assay [1], 0.78 µg/mL (≈ 2.09 µM); in the assay on E. coli, NIHJ, at most 0.05 µg/mL; against Pr. mirabillis, IF0-3849 it was 0.1 µg/mL (≈ 0.268 µM); against Ps. aeruginosa, 32104, 0.2 µg/mL (≈ 0.536 µM); in the assay with Pr. vulgaris, 08601, at most 0.05 µg/mL. In addition, the MIC in assay [2] is 0.39 µg/mL (≈ 1.04 µM); in the assay on Str. pyogenes, G-36, 0.39 µg/mL (≈ 1.04 µM); in the assay with Ps. aeruginosa, 32121 it was 0.1 µg/mL (≈ 0.268 µM); in the assay on Ser. marcescens, 10100 it was 0.2 µg/mL (≈ 0.536 µM); in the assay on S. flexneri, 2A 5503, at most 0.05 µg/mL; against S. epidermidis, 56500, 0.2 µg/mL (≈ 0.536 µM).
